Measurements from a melting point compilation (Tetko et al.; mined from patent text by program, amines drawn as free bases though some values may be those of a salt).

Row | SMILES | melting point [°C]
1 | COCCOCCOCCOc1ccc(-c2nc(C(=O)Nc3nccs3)c(-c3ccc(Cl)cc3)[nH]2)cc1 | 120 to 122
2 | CC(C)(NS(=O)(=O)c1ccc2c(Cl)cnc(Cl)c2c1)C(N)=O | 220 to 222
3 | NC(=NO)c1ncn2c1[C@@H]1CCN1C(=O)c1c(Br)cccc1-2 | 265 to 266
4 | CC(C)(C)c1n[nH]c2c1C(C1CCCCC1)N(c1ccc(-c3ccon3)cc1)C2=O (configuration not stated) | 251 to 252
5 | CCNC(=O)Nc1cc(-c2c(-c3ccc(F)c(C)c3)nc3c(C)cc(Cl)nn23)ccn1 | 229 to 230
6 | CS(=O)(=O)c1ccc(N2CCC(N3CCCC3)CC2)cc1 | 166 to 170
7 | COc1ccc(OC)c2c1[C@H](C=O)c1ccccc1[C@@H]2C=O | 129 to 132
8 | CC(CO)(Cc1c[nH]c2ccccc12)NC(=O)OC1C2CC3CC(C2)CC1C3 (configuration not stated) | 72 to 74
9 | CC(C)(C)c1ccc(C(=O)Nc2cn3nc(NCCc4ccncc4)ccc3n2)cc1 | 279
10 | CC(C)n1nc(-c2nc(C(N)=O)c(N)nc2-c2cccs2)ccc1=O | 238 to 240
11 | COc1cccc(-c2cc3cnc(N)nc3nc2NC(=O)NC(C)(C)C)c1 | 275 to 280
12 | Cc1cccc(Nc2ncnc3ccc(OCCBr)cc23)c1 | 129 to 135
13 | COc1cc(F)ccc1C(C)(C)CC#N | 80 to 83
14 | CCOC(=O)c1cn2c(=O)n(C)c3ccccc3n2c1=O | 243 to 244
15 | Brc1cccc(C2Cc3cnc(Nc4ccc(CCNCCN5CCCC5)cc4)nc3-c3ccccc32)c1 (configuration not stated) | 83 to 85
16 | O=C(O)c1cccc(-n2ccc(-c3ccc(OC(F)(F)F)cc3)n2)c1 | 191 to 194
17 | CCOc1ccc(NC=C(C(=O)Nc2ccccc2)c2cc(C)no2)cc1 | 114 to 115
18 | O=C1c2ccccc2C(=O)N1CC(=O)N1c2ccccc2N(Cc2cccc([N+](=O)[O-])c2)C(=O)[C@H]2CCC[C@H]21 (relative stereo) | 250 to 252
19 | CC(C)CCNC(=O)c1ccccc1-c1ccccc1CNC(=O)Nc1ccccc1 | 194
20 | CC1(CNC(=O)CCl)OCCc2c1[nH]c1ccccc21 (configuration not stated) | 186 to 187

Row | SMILES | melting point [°C]
21 | CCOC(=O)CNc1cc(F)ccc1C(=O)O | 123 to 125
22 | COC(=O)c1cc(C(=O)c2c(C)c(OC)c3ccccn23)ccc1NC(=O)NCC(=O)N(C)C | 228
23 | CCNC(=O)Nc1ccc2c(=O)n(CCCCN3CC=C(c4ccccc4)CC3)c(=O)[nH]c2c1 | 220
24 | COc1ccc(N2C(=O)C(=O)c3cc(OC)ccc32)cc1 | 203 to 205
25 | Nc1ccc(OCc2cscn2)cc1 | 114 to 115
26 | COC(=O)Cc1cc(-c2ccccc2)ccc1OCc1ccc(OCc2nc(-c3ccccc3)oc2C)cc1 | 111 to 112
27 | CCc1cccc(C)c1CNc1cc(C(=O)N(C)C)nc2c(CO)c(C)[nH]c12 | 280
28 | C=CCOC(=O)c1ccc(OC(=O)c2ccc(OC)c(C34CC5CC(CC(C5)C3)C4)c2)c(C(C)(C)C)c1 | 113 to 115
29 | Cc1cc(SC(C)C)c(NC(=O)CCCCCSc2nc3c(C)c(Cl)cc(C(C)C)c3o2)c(SC(C)C)n1 | 99 to 101
30 | CCOC(=O)c1nn(-c2cccc(C)c2)c(=O)c2c(N)scc12 | 190 to 191
31 | CCOC(=O)c1cc2c3n(ccc-2n1)CC(CCl)=N3 | 270 to 272
32 | CCC(=O)Nc1cnn2cnc3ccccc3c12 | 202 to 204
33 | O=CN(O)C(CN1CCOCC1)CS(=O)(=O)c1ccccc1Oc1ccc(OC(F)(F)F)cc1 (configuration not stated) | 161 to 163
34 | S=c1[nH]c2ccc(Cl)cc2c2nc(-c3ccco3)nn12 | 202 to 207
35 | O=C(O)CCc1oc(-n2cnc3ccccc32)nc1-c1ccc(C(F)(F)F)cc1 | 224 to 226
36 | O=C(NCc1ccccc1)c1ccc(F)c2c1CC(N(CCCc1c[nH]c3ccc(F)cc13)C1CCC1)CO2 (configuration not stated) | 124
37 | COc1cc2c(cc1OC)N(C)C(=O)CN=C2c1cccc([N+](=O)[O-])c1 | 152 to 155
38 | CCOC(=O)c1ccc(O)nc1 | 143 to 144
39 | CN1CCN(c2cccc3c2C[C@H](NC(=O)c2ccc(C(=O)C(F)(F)F)cc2)CC3)CC1 | 91 to 93
40 | NC(CC(=O)O)c1ccc(OC(F)(F)F)cc1 (configuration not stated) | 258 to 260

Row | SMILES | melting point [°C]
41 | CN(C)N1CSC(=Cc2cc(C(C)(C)C)c(O)c(C(C)(C)C)c2)C1=O | 138 to 141
42 | O=C(Nc1cccc2c(CBr)c(Br)cnc12)c1c(Cl)cccc1Cl | 210 to 213
43 | CSC(CC(=O)c1cc(Cl)c(C)c(Cl)c1)C(=O)O (configuration not stated) | 158 to 160
44 | Cc1cc2c(cc1-c1cc(C=CC(=O)O)ccc1F)C(C)(C)CCC2(C)C | 181 to 183
45 | O=C(Nc1ccccc1)OCC1(COC(=O)Nc2ccccc2)CS(=O)(=O)c2ccccc2C1=O | 72 to 78
46 | CN1CCC23c4c5cccc4OC2C(=O)CCC3(O)C1C5 (configuration not stated) | 223 to 225
47 | Cc1nc2ccc3nc(O)c(O)nc3c2nc1C | > 300
48 | CCCCCNc1nc(SC)nc2c(C)n[nH]c12 | 88 to 90
49 | Nc1ccc(C(=O)c2ccccc2)cc1C=O | 125
50 | CC1CC2(OC3CC4C5CCC6CC(O)CCC6(C)C5C(=O)CC4(C)C3C2(C)O)OC1(C)C (configuration not stated) | 206 to 208
51 | CC(C)(C)OC(=O)Nc1cc(N2CCOCC2)c(C#Cc2ccccc2)cc1[N+](=O)[O-] | 190 to 191
52 | Cc1ccc(S(=O)(=O)OCC2C(=O)Nc3ccccc3SC2c2ccccc2)cc1 (configuration not stated) | 215
53 | Cc1ccc(C(=O)c2cccc(C(=O)O)c2)c(O)c1 | 198 to 215
54 | CCCCCN(CCC12CC3CC(CC(C3)C1)C2)C(=O)NCCCc1cccnc1 | 99.9 to 105
55 | CNC(=O)Oc1cccc(NC(=O)CC(C)(OC)OC)c1 | 139
56 | O=C(O)C1Cc2cc3c(=O)c4c(Cl)cccc4oc3c(Cl)c2O1 (configuration not stated) | 291 to 294
57 | CCCCOc1nc(N)nc2[nH]cnc12 | 165
58 | COc1ccc2c(c1)OC(C)(C)CC2=O | 77 to 78
59 | CCCc1nc2c(N)nc3ccccc3c2n1CCCC(C)N(OC)C(C)=O (configuration not stated) | 140 to 142
60 | CCCCC[C@H]1CC[C@H](c2ncc(-c3ccc(CCCC)cc3)cn2)CC1 | 87

Second part, the compound after the results:

Row | melting point [°C] | SMILES
61 | 113 to 115 | CCCc1c(OCCCCCC(=O)c2cc(OC)c(OC)c(C(C)C)c2)ccc(C(=O)O)c1O
62 | 116 | O=S(=O)(c1ccc(F)cc1)N1CCCC1c1ccc(F)c(Cl)c1 (racemic)
63 | 162 to 163 | COc1cc(CCC(=O)O)ccc1OCc1oc(-c2ccc(C(F)(F)F)cc2)nc1C
64 | 106 to 109 | CNc1cc(Oc2ccc(NC(=O)Nc3ccc(-c4cccc(C)n4)c(C(F)(F)F)c3)cc2)ncn1
65 | 169 to 171 | Nc1ccn(CC(O)CO)c(=O)n1 (configuration not stated)
66 | 93 to 94 | CC(C)(C)OC(=O)N[C@@H](CC(=O)OCc1ccccc1)C(=O)N[C@@H](Cc1ccccc1)C(=O)OCc1ccccc1
67 | 147 to 148 | COC(=O)C(Cc1ccc(OCc2ccccc2)cc1)N1CC(N2C(=O)c3ccccc3C2=O)C1=O (configuration not stated)
68 | 260 to 262 | CCOC(=O)c1ccc(NC(=O)N2CCn3c(c(C(N)=O)c(Cl)c3-c3ccccc3)C2)cc1
69 | 176 to 178 | CON=C(C)c1cc2c(Cl)cc(F)c(-n3c(=O)cc(C(F)(F)F)n(C)c3=O)c2o1
70 | 308 to 314 | O=C(O)c1cnc2n(c1=O)CCc1cc(O)c(O)cc1-2
71 | 121 to 122 | CCOC(=O)Cn1c(C(=O)OCC)c(O)c(O)c1C(=O)OCC
72 | 78 to 80 | CCOP(=O)(CCN(OCc1ccccc1)S(=O)(=O)c1ccc(C)cc1)OCC
73 | 77 | COc1ccc(Oc2cc3ccc(Cl)cc3cn2)cc1
74 | 105 to 107 | CC(O)Cc1c2ccccc2cc2ccccc12 (configuration not stated)
75 | 144 to 149 | CCOC(=O)c1cnc(-c2ccccc2OCC)[nH]c1=O
76 | 200 to 202 | O=C(O)C=Cc1cc(Cl)ccc1C(=O)O
77 | 149 to 152 | Cc1ccc(Cl)c(C(N)=O)c1N
78 | 80 to 81 | Cc1cc(-c2noc(C3CC3)n2)cc(C)c1OCCCc1cc(CO)no1
79 | 116 to 117 | O=S(=O)(Nc1cccc(CCOCc2csc(-c3ccc(C(F)(F)F)cn3)n2)c1)C(F)(F)F

Row | melting point [°C] | SMILES
80 | 199 to 200 | COc1ccnc(CCc2nc3cc(-c4ccc(S(=O)(=O)NC5CCCCC5)cc4)cnc3[nH]2)c1
81 | 124 to 128 | O=C(c1cccs1)c1cnn2c(-c3cccc(NCc4ccco4)c3)ccnc12
82 | 115 to 125 | CC(COc1ccc(CC2SC(=O)NC2=O)cc1)NCC(O)CN(C)c1ccccc1 (configuration not stated)
83 | 200 to 202 | COc1cccc2c1nc(C(F)F)n2-c1nc(C2CCCN(C(=O)OC(C)(C)C)C2)nc(N2CCOCC2)n1 (configuration not stated)
84 | 139 to 141 | O=C(CN1CCN(c2cnccn2)CC1)N1CC=C(c2ccc(Cl)cc2)CC1
85 | 133 to 134 | COc1ccccc1Oc1c(N=[N+]=[N-])nc(-c2ncccn2)nc1C(=O)OCCO
86 | 165 to 167 | COC(=O)C(C)(C)Cc1c(SC(C)(C)C)c2cc(OCc3ccc4cc(F)ccc4n3)ccc2n1Cc1ccc(Cl)cc1
87 | 271 to 273 | Cc1ccc(C)c2c1CCC2=NNC(N)=NC(c1ccccc1)c1ccccc1
88 | 272 to 274 | Cc1nnc(Cl)c2cc3n(c12)CCCC3
89 | 102 to 104 | Cc1cn(C(C)C(=O)N(C)C)nc1-c1ccccc1Br (configuration not stated)
90 | 275 to 277 | Cc1nc2cccc(F)c2c(=O)n1C1CCC(=O)NC1=O (configuration not stated)
91 | 73 to 75 | COc1ccc(/C=N/Nc2nccc(C(F)(F)F)n2)cc1OC1CCCC1
92 | 73 to 74 | O=C(OC1CCN(Cc2ccccc2)CC1)c1ccccc1I
93 | 160 | CCCCc1nc(SCC)c(CO)n1Cc1ccc(-c2ccccc2C(=O)O)cc1
94 | 208 | COc1ccc(N2CCN(c3ccc(-n4cccn4)cc3)CC2)cc1
95 | 85 to 92 | COc1ccc(-c2c(C)c3cc(O)ccc3n2Cc2ccc(OCCN3CCCCC3)cc2)c(OC)c1
96 | 52 to 54 | CN(C)c1ccc2sccc2c1
97 | 213 to 215 | CCCCc1nc(Cl)c(COC)n1Cc1ccc2oc(-c3ccccc3-c3nnn[nH]3)c(Br)c2c1
